System: MDA-MB-231
Experiment: alamar-blue cell viability / cytotoxicity of PEI, doxorubicin and mixtures
Assay type: cell-based, human
Procedure: All cells were maintained at 37° C. in a humidified incubator with 5% CO2. MDA-MB-231 growing in the DMEM medium were harvested by trypsin-EDTA, and an initial concentration of 1×106 and further dilutions were made and seeded into wells of a 96-well plate (100 μL for each well). The medium without cells was used as negative control, and the plate was incubated for 18 h to allow cell attachment. Then another 100 μL, medium with desirable concentration drug were added into the well. After 24 h and 48 h incubation, 22 μL of alamar-blue (0.5 mg per mL) was added to each well. The absorbance was measured after further 4 h incubation at 530 nm and 590 nm using PowerwaveXPS plate reader. The plate was also incubated for the following 24 hours to measure the maximum dye reduction. Percentage reduction of alamar-blue is typically calculated using equation (1):
[formula] where At, An and Ac are recorded absorbance of test wells for test group, negative control group and positive control group.
Referring to FIG. 2, the cell viability is shown as a function of the molecular weight of the cationic polymer. […] All cells were maintained at 37° C. in a humidified incubator with 5% CO2. MDA-MB-231, 4T1 and HUVECs, HCC-1806, Hs-587T, MCF-7 cells growing in the log phase of growth were harvested by trypsin-EDTA, and an initial concentration of 1×10^6 and further dilutions were made and seeded into wells of a 96-well plate (100 μL, for each well). The medium without cells was used as negative control, and the plate was incubated for 18 h to allow cell attachment. Then another 100 μL medium with desirable concentration drug were added into the well. After 24 h and 48 h incubation, 22 μL, of alamar-blue (0.5 mg per mL) was added to each well. The absorbance was measured after further 4 h incubation at 530 nm and 590 nm using Powerwave XPS plate reader. The plate was also incubated for the following 24 hours to measure the maximum dye reduction. Percentage reduction of alamar-blue is typically calculated using equation (1).

COc1cccc2c1C(=O)c1c(O)c3c(c(O)c1C2=O)C[C@@](O)(C(=O)CO)C[C@@H]3O[C@H]1C[C@H](N)[C@H](O)[C@H](C)O1 [doxorubicin]
cell viability (FIG. 1, drug concentrations between 0 μM and 5 μM): approximately 70%
cell viability (FIG. 2, 0.3 to 0.6 μg doxorubicin per well, 0 μg of PEI): 60-70%
cell viability (FIG. 3 line 304, doxorubicin less than 5 μM): about 70%

Reference: patent publication US10391112B2, “Cationic polymers as co-drugs for chemotherapeutic agents” (Northeastern University, priority 2015, dated 2019)
